“Also recorded” adds a separate entry of the source.

What all share (assay type): cell-based, human
Test [1] deals with Mesenchymal stem cells. As to the kind of experiment: Change in mesenchymal stem cell behavior following factor treatment (culture observation). The protocol: Mesenchymal stem cells were derived from human volunteers under general anesthesia. Bone marrow was harvested from the iliac crest by aspiration. Approximately 5 mL of bone marrow was suspended in essential medium containing 20% fetal bovine serum (FBS), antibiotics, and glutamine (Sigma). […] The non-adherent cells, as well as any debris, is easily separated from the adherent mesenchymal stem cells.
Mesenchymal stem cells were plated at a density of 1×10^6/mL in a six well plate. Following adhesion of the cells to the plate, cells were treated with either medium containing 20% FBS, with medium supplemented with TGFβ-1, or with medium supplemented with sonic hedgehog.
Following adhesion of cells to the plate, cells were treated with either medium containing 20% FBS (negative control), medium containing 1 ng/mL TGFβ-1, or medium containing 100 ng/mL of the lipid modified N-terminal fragment of sonic hedgehog. In all cases, the medium was changes twice per week throughout the duration of the experiment.

Test [2] relates to Mesenchymal stem cells. Description: Immunohistochemistry of paraffin sections of treated tissue. The conditions noted are these: 100 ng/mL lipid modified sonic hedgehog; 21 days. The protocol:
(§1) Mesenchymal stem cell cultures were established, as described in detail above. Cells were cultured in the presence of 20% FBS, 1 ng/mL TGFβ-1, or 100 ng/mL lipid modified sonic hedgehog, and the medium was changed twice per week. After 21 days in culture, tissue was harvested, and fixed overnight in formaline solution. Fixed tissue was washed, dehydrated, embedded in paraffin, and 4 μm sections were cut using a microtome. Sections were mounted on adhesive slides, and processed for histology and immunohistochemistry.
Mounted paraffin sections were processed for immunohistochemistry with an automatic stainer (DAKO TechMate™) using indirect streptavidin-biotin methods with a Fuchsintype chromogen. The following primary antibodies were used: vimentin, collagen II, Indian hedgehog, PTHrp, BMPR-IA, BMPR-IB, and BMPR-II. Immunohistochemistry was by standard methods except for the PTHrp antibody which required incubation of the tissue with proteinase K.

Test [3] relates to Mesenchymal stem cells. As to the kind of experiment: Alcian blue staining of paraffin sections of treated tissue. The following applies: 100 ng/mL lipid modified sonic hedgehog; 21 days; Alcian blue pH 2.5. The protocol: as §1
Mounted paraffin sections were stained with Alcian blue. Sections were treated with Alcian blue, pH 2.5 and 3% Acetic acid for five minutes. Following treatment, the sections were washed with ultrapure water.

Test [4] deals with Mesenchymal stem cells. Description: Hematoxyline-eosine staining of paraffin sections of treated tissue. The following applies: 100 ng/mL lipid modified sonic hedgehog; 21 days. The protocol:
as §1
Mounted paraffin sections were stained with hematoxyline-eosine, and viewed under a light microscope.

Where [5] appears, read: 1 ng/mL TGFβ-1, after a week in culture.

“TGFβ-1: TGFβ family polypeptide, added to the culture medium at 1 ng/mL”: in the test with Mesenchymal stem cells [1] (setting [5]), the cell morphology result is given as “morphologically distinct” and the cell size entry is on record as “larger”. Besides, the “proliferative effects on mesenchymal stem cells” value in the test with Mesenchymal stem cells [1] (treatment with TGFβ-1) was “robust proliferative effects”.
sonic hedgehog: in the test on Mesenchymal stem cells [2], the BMPR-IA immunostaining result was “not detected; also recorded: immunonegative”, the BMPR-IB immunostaining result is reported as “immunopositive”, the BMPR-II immunostaining entry is “immunopositive” and the Indian hedgehog immunostaining entry is “immunonegative”. Moreover, in the test on Mesenchymal stem cells [2], the PTHrp immunostaining entry is “immunopositive”, the “collagen II immunostaining” value was “strongly expressed; also recorded: strongly immunopositive” and the vimentin immunostaining result is “strongly immunopositive”. In addition, the “cell migration and clustering in the culture well” value in the test on Mesenchymal stem cells [1] (100 ng/mL lipid modified N-terminal fragment of sonic hedgehog, after the first two weeks in culture) was “appeared to migrate and clustered in one half the area of the culture well”. In the test on Mesenchymal stem cells [1] (100 ng/mL lipid modified N-terminal fragment of sonic hedgehog, approximately three weeks in culture), the “formation of a ball of tissue from the cell cluster” value is “condensed and migrated to form a small ball; also recorded: formed a grayish-white ball”. For the same substance, the “cell proliferation in culture” value in the test on Mesenchymal stem cells [1] (100 ng/mL lipid modified N-terminal fragment of sonic hedgehog, first two weeks in culture) is “proliferated efficiently”. In the test with Mesenchymal stem cells [3], the “Alcian blue staining (acid mucopolysaccharids)” value is given as “Positive”. Moreover, the “tissue organization and matrix production (hematoxyline-eosine, light microscope)” value in the test with Mesenchymal stem cells [4] is “extensive organization of the tissue, the intricate folding of the layers, and the abundant matrix production; also recorded: highly organized, contains several folded layers, and produces abundant matrix”.
